Values quoted from earlier work in US20260226019A1, “NEGATIVE ALLOSTERIC MODULATORS OF METABOTROPIC GLUTAMATE RECEPTOR 2” (Vanderbilt University, priority 2023, published 2026).
Like-named read-outs stand apart in the source and are kept apart here.

Assays:
[1] = cited from earlier work; for activity in the tail suspension test: Helpless (H) mice; for antidepressant effect: helpless mice
[2] = system: central mGlu2 and mGlu3 receptors; conditions: target-specific manner; cited from earlier work
[3] = C57B16/J mice, FST; cited from earlier work
[4] = system: mGlu2/3 receptor; conditions: rat forced swim test, normal animals; cited from earlier work
[5] = system: mGlu2/3 receptor; conditions: mouse tail-suspension test, normal animals; cited from earlier work
[6] = system: mGlu2; conditions: cited from earlier work
[7] = system: group II mGlu receptors; conditions: treated mice; cited from earlier work
[8] = system: mGlu2/3 receptor; conditions: learned helplessness test; treatment for 7 days; cited from earlier work
[9] = system: group II mGlu receptors (mGlu2 and mGlu3); conditions: CFS model; cited from earlier work
[10] = olfactory bulbectomized rats; repeated administration for 14 days; cited from earlier work
[11] = social isolation reared mice; cited from earlier work
[12] = dominant-submissive test; cited from earlier work

Cc1cc(-c2cccc(C3=Nc4cc(C)c(C(F)(F)F)cc4NC(=O)C3)c2)cc(C)n1 [Compound R04491533]
activity in the tail suspension test [1]: active | hypolocomotor effect of mGlu2/3 agonist (LY379268) [2]: reversed | immobility time [3]: dose-dependently reduced

N[C@](CC1c2ccccc2Oc2ccccc21)(C(=O)O)[C@H]1C[C@@H]1C(=O)O [LY341495]
activity in the tail suspension test [1]: active | antidepressant effect ([1]; acute administration): potent antidepressant effect | antidepressant-like effects [4]: Antidepressant-like effects | hypolocomotor effect of mGlu2/3 agonist (LY379268) [2]: achieved the same result | antidepressant-like effects [5]: Antidepressant-like effects | LY566332 amplification of AP-induced neurodegeneration [6]: prevented | marble-burying behavior [7]: significantly reduce | immobility time [3]: dose-dependently reduced

CCS(=O)(=O)N(Cc1cccnc1)c1cccc(-c2ccc(C#N)cc2)c1 [LY566332]
AP-induced neurodegeneration [6]: amplified

N[C@]1(C(=O)O)[C@H]2[C@@H](C[C@H]1OCc1ccc(Cl)c(Cl)c1)[C@]2(F)C(=O)O [MGS0039]
number of escape failures [8]: significantly reduced | antidepressant-like effects [4]: Antidepressant-like effects | freezing behavior [9]: significantly decreased | hyperactivity in the open field test [10]: attenuated | learning deficit in the passive avoidance test [10]: attenuated | antidepressant-like effects [5]: Antidepressant-like effects | marble-burying behavior [7]: reduced marble-burying behavior in a significant and dose dependent manner | spontaneous locomotor activity [7]: no significant change | increased immobility in the FST [11]: reversed

CN1C(=O)CN=C(c2ccccc2)c2cc(Cl)ccc21 [diazepam]
freezing behavior [9]: significantly decreased

CNCCC(Oc1ccc(C(F)(F)F)cc1)c1ccccc1 (stereo not shown) [fluoxetine]
antidepressant effect ([1]; chronic (21 days) treatment): full antidepressant effect | onset of effects [12]: after two weeks

COCCCC/C(=N\OCCN)c1ccc(C(F)(F)F)cc1 [fluvoxamine]
freezing behavior [9]: significantly decreased
